Assay [1] has as its system Pseudomonas putida. Put plainly: Kinetic inactivation against mandelate racemase from Pseudomonas putida ATCC 12633 in a solution of D2O.
Assay [2] deals with Pseudomonas putida. Kind of assay: Kinetic inactivation against mandelate racemase from Pseudomonas putida ATCC 12633.

Results on one compound are retold here after ChEMBL document CHEMBL1126365, “Mechanism-based inactivation of mandelate racemase by propargylglycolate” (Bioorg Med Chem Lett, 1992).

On to `O=C(O)[C@@H](O)c1ccccc1`, for which the K inact is 0.2 min⁻¹ with Pseudomonas putida [1] and 0.28 min⁻¹ in the assay with Pseudomonas putida [2].
